Columns and labels:
rat beta cells [1] = experiment: Number of living beta cells in culture (Hoechst 33342/propidium iodide whole-well imaging counts; expansion assay); format: cell-based; conditions: for Number of Living Cells on Day 15 (% of Day 1): control 101 ± 7; for concentration giving maximal inhibition / prevention of DEX-stimulated increase of beta cell numbers: with 0.01 μM DEX, d1 to d15
Method: Beta cells were FACS-purified from islet-cell enriched suspensions (Pipeleers et al., 1985) prepared from neonatal (2-3 days-old) and adolescent or adult (8 or 40-week-old, male) Wistar rats (Janvier Bioservices, France); their purity was, respectively 70-75% and over 90%. Sorted cells were counted in a hemocytometer, seeded (day 0) and cultured for up to 15 days in serum-free Ham's-F10 medium at 5, 10 or 20 mmol/l glucose, supplemented with 2 mmol/l L-glutamine, 50 μM 3-isobutyl-1-methylxanthine, 0.5% Albumax-I, penicillin (100 U/ml) and streptomycin (0.1 mg/ml). The 10 mmol/l glucose condition is known to maintain beta cell survival over 9-days (Ling et al., 1994; Ling and Pipeleers, 1994). Medium and cells were retrieved after selected culture periods and assayed for insulin content; data were expressed as a function of the number of living beta cells that was determined in parallel wells.
(§1) On day 1, 9 and 15 of culture, total numbers of living beta cells per well were determined by semi-automatic cell count, after Hoechst 33342 (Ho) and propidium iodide (PI) staining. Numbers of living beta cells were obtained by subtracting the PI-positive cell numbers from the Ho-positive cell numbers, and correcting for the percent insulin-negative cells, as determined following insulin-immunofluorescence staining. They were expressed as percent of the numbers on day 1. Each condition was also evaluated for increases in the percentage of proliferating beta cells (incorporating the thymidine-analogue 5-ethynyl-2′-deoxyuridine, EdU; 100 μmol/l). To detect beta cells that underwent two successive cycles, cells were sequentially exposed to two different thymidine-analogs, first EdU from day 3 to 6, and then BrdU (100 μmol/l) from day 7 to 10, with a 24-hour label-free period in between. EdU-positive (EdU^+) nuclei were detected with the Click-iT Assay kit (Invitrogen), while BrdU-positive (BrdU^+) nuclei were identified with anti-BrdU antibody.
Absolute number of cells was determined by whole-well imaging using the BD-PathwayBioimager855 (BD-Biosciences). IPLab and AttoVision software packages (BD-Biosciences) were used for image background subtraction, segmentation and quantification.
Experimental procedures for isolation of beta cells from neonatal (2-3 days old) and adult (8 or 40 week old, male) Wistar rats (Janvier Bioservices, France) and analysis of their number, viability and proliferation activity in culture have been described before (Assefa et al., 2014). Sorted beta cells were seeded in 804G matrix-coated plates (designated as day 0) and the numbers and viability of seeded cells at the start of all experiments were determined on day 1 (24 h after seeding). The cells were cultured in control medium, which is a serum-free Ham's F10 medium supplemented with 2 mM L-glutamine, 50 μM 3-isobutyl-1-methylxanthine, 0.5% Albumax I, penicillin (100 U/ml), streptomycin (0.1 mg/ml) and, unless indicated otherwise, 10 mM glucose.
(§2) Sorted beta cells were seeded in 384-well or 6-well plates coated with 804G matrix, and kept in culture for up to 15 days at 37° C. 5% CO2 using Ham F10 supplemented with 1 mM L-glutamine, 0.1 mg/ml streptomycin, 0.075 mg/ml penicillin, 50 μM of isobutyl-1-methylxanthine (IBMX) at 10 mM D-glucose with and without synthetic GCs (6 methyl-prednisolone (6MP), dexamethasone (DEX), GR-modulators (compound A (CPA), mifepristone (MIF), and NFκB inhibitors (JSH-23 en Bay11-7085). Total cell number and beta cell viability was evaluated after incubation with Hoechst 33342 and propidium iodide. All chemicals were from Sigma Life Sciences or Merck. Quantification of cell numbers and analysis of beta-cell viability was done using the Pathway Bioimager (BD Biosciences) and using IPlab and Attovision software for background subtraction as described prior (Assefa et al., 2014).

rat beta cells [2] = experiment: Beta cell DNA synthesis/proliferation by EdU (and BrdU) incorporation, incl. LOPAC screen; format: cell-based; conditions: for effect on 6MP induced DNA-synthesis and increase in cell numbers: JSH-23 10 μM, Bay11-7085 5 μM
Method: as §1
Freshly purified beta cells were cultured in control medium for 24 h prior to the addition of the LOPAC test compounds (day 1). The culture medium was refreshed on day 3 and the cells were then cultured further with 5-ethynyl-2′-deoxyuridine (EdU; 10 μM) up to day 6. Cell viability and percentage EdU incorporation were quantified after imaging and image analysis using the BD Pathway Bioimager, as described before (Assefa et al., 2014). To test the significance of compound effect on beta cell proliferation, average Z-score for each compound was calculated and a cut-off for potential positive hits was set at a Z-score of greater than three standard deviations. Thus, a compound is considered a hit only if it increases the percent EdU incorporation to above three standard deviation of the plate-averaged percent EdU incorporation.
as §2, with “2014). Replicating beta cells were quantified after 24 or 72 hrs incubation with 5-ethynyl-2′-deoxyuridine (EdU, a thymidine analog) using the ClickIT EDU Alexa Fluor assay (Invitrogen). EdU-positive cells were expressed as percentage of total cell number.” for “2014).”

[3] = system: GR trans-repression and trans-activation targets, cell cycle genes and beta cell phenotype markers; experiment: Q-PCR of mRNA levels in cultured beta cells; format: cell-based, rat; conditions: for effect on ICAM1 mRNA levels: NFkB-inhibitors, relative to vehicle control
[4] = control medium + compound 1 μM, 15 days
[5] = 9 days culture, 1 μM 6MP, 1 μM MIF, 0.5 μM CPA, vehicle = 1.0

Molecule: CC(=O)S[C@@H]1CC2=CC(=O)CC[C@]2(C)[C@H]2CC[C@@]3(C)[C@@H](CC[C@@]34CCC(=O)O4)[C@H]12 [Spironolactone, spironolactone]
- Number of Living Cells on Day 15 (% of Day 1) (rat beta cells [1]; [4]): 105 ± 5 % of Day 1

Molecule: COC(=O)C1=C(C)NC(C)=C([N+](=O)[O-])C1c1ccccc1C(F)(F)F (racemic) [(±)-Bay K 8644]
- hit status in LOPAC screen based on Z-scores (rat beta cells [2]; 1 μM, adult rat beta cells): potential inducers of beta cell proliferation

Molecule: CC(C)(C)c1ccc(S(=O)(=O)/C=C/C#N)cc1 [Bay11-7085]
- effect on 6MP induced DNA-synthesis and increase in cell numbers (rat beta cells [2]): does not inhibit
- effect on ICAM1 mRNA levels [3]: suppressing

Molecule: C[C@]12CCC(=O)C=C1CC[C@@H]1[C@@H]2[C@@H](O)C[C@]2(C=O)[C@@H](C(=O)CO)CC[C@@H]12 [Aldosterone, aldosterone]
- Number of Living Cells on Day 15 (% of Day 1) (rat beta cells [1]; control medium + compound 0.1 μM, 15 days): 112 ± 5 % of Day 1

Molecule: CC#C[C@]1(O)CC[C@H]2[C@@H]3CCC4=CC(=O)CCC4=C3[C@@H](c3ccc(N(C)C)cc3)C[C@@]21C [MIF, mifepristone]
- effect on 6MP/DEX-stimulated increase of cell numbers (rat beta cells [1]; MIF 1 μM): inhibited
- Number of Living Cells on Day 15 (% of Day 1) (rat beta cells [1]; [4]): 104 ± 5 % of Day 1
- concentration giving maximal inhibition / prevention of DEX-stimulated increase of beta cell numbers (rat beta cells [1]): 0.1 µM
- CDK4 mRNA level (ΔΔCt values relative to basal vehicle control) [3, 5]: 1.3 ± 0.2
- CXCL11 mRNA level (ΔΔCt values relative to basal vehicle control) [3, 5]: 1.5 ± 0.6
- Cyclin B1 mRNA level (ΔΔCt values relative to basal vehicle control) [3, 5]: 1.0 ± 0.3
- Cyclin B2 mRNA level (ΔΔCt values relative to basal vehicle control) [3, 5]: 0.6 ± 0.1^1
- CyclinD1 mRNA level (ΔΔCt values relative to basal vehicle control) [3, 5]: 1.0 ± 0.1
- DLK1 mRNA level (ΔΔCt values relative to basal vehicle control) [3, 5]: 0.9 ± 0.2
- FKBP4 mRNA level (ΔΔCt values relative to basal vehicle control) [3, 5]: 0.7 ± 0.2
- FKBP5 mRNA level (ΔΔCt values relative to basal vehicle control) [3, 5]: 0.7 ± 0.2
- MKP1 mRNA level (ΔΔCt values relative to basal vehicle control) [3, 5]: 1.3 ± 0.0
- MafA mRNA level (ΔΔCt values relative to basal vehicle control) [3, 5]: 1.1 ± 0.3
- MafB mRNA level (ΔΔCt values relative to basal vehicle control) [3, 5]: 0.6 ± 0.2
- NPY mRNA level (ΔΔCt values relative to basal vehicle control) [3, 5]: 0.8 ± 0.0
- NR3C1 mRNA level (ΔΔCt values relative to basal vehicle control) [3, 5]: 1.1 ± 0.1
- Pdx1 mRNA level (ΔΔCt values relative to basal vehicle control) [3, 5]: 1.1 ± 0.3

Molecule: Cc1ccc(NCCCc2ccccc2)c(N)c1 [JSH-23]
- effect on 6MP induced DNA-synthesis and increase in cell numbers (rat beta cells [2]): does not inhibit
- effect on ICAM1 mRNA levels [3]: suppressing

Molecule: CNCC(Cl)c1ccc(OC(C)=O)cc1.Cl (stereo not drawn) [CPA]
- change of beta cell numbers between day 1 and 15 (rat beta cells [1]; 6MP 1 μM, DEX 0.01 μM, CPA 0.5 μM): no change of beta cell numbers
- concentration giving maximal inhibition / prevention of DEX-stimulated increase of beta cell numbers (rat beta cells [1]): 0.5 µM
- CDK4 mRNA level (ΔΔCt values relative to basal vehicle control) [3, 5]: 1.1 ± 0.2
- CXCL11 mRNA level (ΔΔCt values relative to basal vehicle control) [3, 5]: 1.1 ± 0.3
- Cyclin B1 mRNA level (ΔΔCt values relative to basal vehicle control) [3, 5]: 0.8 ± 0.4
- Cyclin B2 mRNA level (ΔΔCt values relative to basal vehicle control) [3, 5]: 0.5 ± 0.1^2
- Cyclin E1 mRNA level (ΔΔCt values relative to basal vehicle control) [3, 5]: 1.0 ± 0.1
- CyclinD1 mRNA level (ΔΔCt values relative to basal vehicle control) [3, 5]: 0.7 ± 0.1^1
- DLK1 mRNA level (ΔΔCt values relative to basal vehicle control) [3, 5]: 1.4 ± 0.4
- FKBP4 mRNA level (ΔΔCt values relative to basal vehicle control) [3, 5]: 0.9 ± 0.2
- FKBP5 mRNA level (ΔΔCt values relative to basal vehicle control) [3, 5]: 1.3 ± 0.1
- GDF11 mRNA level (ΔΔCt values relative to basal vehicle control) [3, 5]: 0.7 ± 0.1
- ICAM1 mRNA level (ΔΔCt values relative to basal vehicle control) [3, 5]: 0.3 ± 0.1^3
- MKP1 mRNA level (ΔΔCt values relative to basal vehicle control) [3, 5]: 2.7 ± 1.1
- MafA mRNA level (ΔΔCt values relative to basal vehicle control) [3, 5]: 0.4 ± 0.1^3
- MafB mRNA level (ΔΔCt values relative to basal vehicle control) [3, 5]: 1.4 ± 0.5
- NNAT mRNA level (ΔΔCt values relative to basal vehicle control) [3, 5]: 0.6 ± 0.1
- NPY mRNA level (ΔΔCt values relative to basal vehicle control) [3, 5]: 1.1 ± 0.3
- NR3C1 mRNA level (ΔΔCt values relative to basal vehicle control) [3, 5]: 1.0 ± 0.1
- Pdx1 mRNA level (ΔΔCt values relative to basal vehicle control) [3, 5]: 0.8 ± 0.1
- TRH mRNA level (ΔΔCt values relative to basal vehicle control) [3, 5]: 1.2 ± 0.6

Molecule: O=C(CO)[C@@H](O)[C@@H](O)[C@H](O)[C@H](O)CO [mannoheptulose]
- baseline and GC-induced proliferation of beta cells (rat beta cells [2]; competitive inhibition of GK, data not shown): reduces

B1: GDF11: secretory factor added to beta cell culture (10 nM) (protein, UniProt O95390 299-407, looked up)
Growth/differentiation factor …: NLGLDCDEHSSESRCCRYPLTVDFEAFGWDWIIAPKRYKANYCSGQCEYMFMQKYPHTHLVQQANPRGSAGPCCTPTKMSPINMLYFNDKQQIIYGKIPGMVVDRCGCS
- effect on cell numbers in combination with 6MP (rat beta cells [1]; 15 days, 6MP 1 μM, GDF11 10 nM, TRH 5 nM): suppressed proliferation
- effect on cell numbers under basal conditions (rat beta cells [1]; 15 days, DLK1 0.5 μM, GDF11 10 nM, TRH 5 nM): modest increase of cell numbers

From patent publication US20160274087A1, “SCREENING ASSAY FOR AGENTS THAT INFLUENCE BETA CELL NUMBER AND/OR PHENOTYPE” (VRIJE UNIVERSITEIT BRUSSEL, priority 2013, published 2016)
